Entries after “also recorded” stand apart in the source; their conditions may differ.
What was measured:
[1] = tested on: Formosan subterranean termites; assay: Petri dish treated/untreated sand bioassay for repelling activity against termites; format: in vivo, Coptotermes formosanus; design: key to percent of termites on untreated sand vs expected value of 50% (Chi-Square, p≦0.05): “−” indicates the test was not significantly different from the expected value; “+” indicates the test was significantly different from the expected value
Description: A carton nest (colony A) of Formosan subterranean termites was collected in Algiers, Louisiana in November 1997, and held in 250-liter cans. The cans were filled with pine as a food source, and kept at a temperature range of 24-26° C. Moistened corrugated cardboard rolls were used to retrieve termites from the cans. Once the termites migrated to the cardboard rolls, they were gently knocked from the cardboard rolls into clean rectangular plastic trays (40 cm×50 cm). Retrieved termites were isolated from debris by allowing them to cling to sheets of moistened paper towels. The average weight of each termite was 1.21 mg.
To test for effectiveness of nootkatone, 1,10-dihydronootkatone and tetrahydronootkatone in repelling termites, a bioassay was conducted using Petri dishes (5 cm diameter and 1 cm height). To ensure adequate moisture for the termites, 1 ml of a hot agar solution (1.5% in H2O) was spread on the bottom of the Petri dish. After the agar cooled, sand that was treated as described below was spread on the bottom of the Petri dish. For the treated sand, purified 1,10-dihydronootkatone or tetrahydronootkatone were dissolved in 2 ml ethanol, and then diluted to achieve final concentrations of 1, 2, 5, 12.5, 25, 50, and 100 μg/g sand. The solution was mixed with 1 g sand that had been autoclaved and cooled. The control sand was autoclaved sand with only 200 μl ethanol added. One half of the surfaces in the Petri dishes were covered with 1 g treated sand, and the other half with 1 g untreated sand.
The prepared Petri dishes were then used to evaluate the repelling activity against Formosan subterranean termites. Ten worker termites were added to each Petri dish, and the dishes were covered to eliminate light. Five replicate dishes were tested for each concentration and for the control. Termite position was recorded every 15 min during the first hour of testing by counting the number of termites observed on untreated sand. After the first hour, termite position was recorded each hour for 3 hr.
Differences between the percent of termites on untreated sand and an expected value were statistically analyzed by a Chi-Square analysis, using an expected value of 50% and a significance level of p≦0.05.

[2] = tested on: biting midges (family Ceratopogonidae, genus Culicoides); assay: Field test of 5% solution applied to faces against biting midges in a marsh; format: in vivo; details: 5% solution in 70% isopropyl alcohol applied to faces of two volunteers
Description: To test the repellence of tetrahydronootkatone on biting midges (family Ceratopogonidae, genus Culicoides), tetrahydronootkatone was dissolved in 70% isopropyl alcohol to a final concentration of 5%. This solution was used to topically apply to the faces of two adult male volunteers. […] The six males went into a southern Louisiana marsh, an area known for biting midges.

[3] = tested on: salt marsh mosquitoes, Aedes vexans; assay: Mosquito bites on arm treated topically with 5% solution, placed in mosquito cage; format: in vivo; details: for Number of Mosquito Bites in a 2 min Period: arm treated with 5 ml of 5% solution
Description: To test the repellence of tetrahydronootkatone on mosquitos, tetrahydronootkatone was dissolved in 70% isopropyl alcohol to a final concentration of 5%. This solution was used to topically apply to the arms of two male volunteers. Each volunteer cleaned each arm thoroughly with soap and water, and then wiped down each arm with 70% isopropyl alcohol. The right arm of each volunteer was treated with 5 ml of the 5% tetrahydronootkatone solution. The left arm served as a control. To test for mosquito repellence, each arm of a single volunteer was placed into a cage of freshly collected mosquitoes, about 100 mosquitos per cage. The mosquitoes were salt marsh mosquitoes, Aedes […]. After 2 min, the number of mosquito bites on each arm were counted. Tests were run at 5 min, 1 hr, 2 hr, and 3 hr after the initial application of tetrahydronootkatone.

CC(C)C1CCC2CC(=O)CC(C)C2(C)C1 (stereo not drawn) [Tetrahydronootkatone, 1,4,4a,5,6,7,8,10-octahydro-6-isopropl-4,4a-dimethyl-2(1H)-naphthalenone]
percent of termites on untreated sand vs expected value of 50% (Chi-Square, p≦0.05) ([1]; 1 μg/dish, 0.25 hour): − | percent of termites on untreated sand vs expected value of 50% (Chi-Square, p≦0.05) ([1]; 1 μg/dish, 0.5 hour): − | percent of termites on untreated sand vs expected value of 50% (Chi-Square, p≦0.05) ([1]; 1 μg/dish, 0.75 hour): − | percent of termites on untreated sand vs expected value of 50% (Chi-Square, p≦0.05) ([1]; 1 μg/dish, 1 hour): − | percent of termites on untreated sand vs expected value of 50% (Chi-Square, p≦0.05) ([1]; 1 μg/dish, 2 hour): − | percent of termites on untreated sand vs expected value of 50% (Chi-Square, p≦0.05) ([1]; 1 μg/dish, 3 hour): − | percent of termites on untreated sand vs expected value of 50% (Chi-Square, p≦0.05) ([1]; 2 μg/dish, 0.25 hour): + | percent of termites on untreated sand vs expected value of 50% (Chi-Square, p≦0.05) ([1]; 2 μg/dish, 0.5 hour): + | percent of termites on untreated sand vs expected value of 50% (Chi-Square, p≦0.05) ([1]; 2 μg/dish, 0.75 hour): + | percent of termites on untreated sand vs expected value of 50% (Chi-Square, p≦0.05) ([1]; 2 μg/dish, 1 hour): + | percent of termites on untreated sand vs expected value of 50% (Chi-Square, p≦0.05) ([1]; 2 μg/dish, 2 hour): + | percent of termites on untreated sand vs expected value of 50% (Chi-Square, p≦0.05) ([1]; 2 μg/dish, 3 hour): + | percent of termites on untreated sand vs expected value of 50% (Chi-Square, p≦0.05) ([1]; 5 μg/dish, 0.25 hour): − | percent of termites on untreated sand vs expected value of 50% (Chi-Square, p≦0.05) ([1]; 5 μg/dish, 0.5 hour): + | percent of termites on untreated sand vs expected value of 50% (Chi-Square, p≦0.05) ([1]; 5 μg/dish, 0.75 hour): + | percent of termites on untreated sand vs expected value of 50% (Chi-Square, p≦0.05) ([1]; 5 μg/dish, 1 hour): + | percent of termites on untreated sand vs expected value of 50% (Chi-Square, p≦0.05) ([1]; 5 μg/dish, 2 hour): + | percent of termites on untreated sand vs expected value of 50% (Chi-Square, p≦0.05) ([1]; 5 μg/dish, 3 hour): + | percent of termites on untreated sand vs expected value of 50% (Chi-Square, p≦0.05) ([1]; 12.5 μg/dish, 0.25 hour): + | percent of termites on untreated sand vs expected value of 50% (Chi-Square, p≦0.05) ([1]; 12.5 μg/dish, 0.5 hour): + | percent of termites on untreated sand vs expected value of 50% (Chi-Square, p≦0.05) ([1]; 12.5 μg/dish, 0.75 hour): + | percent of termites on untreated sand vs expected value of 50% (Chi-Square, p≦0.05) ([1]; 12.5 μg/dish, 1 hour): + | percent of termites on untreated sand vs expected value of 50% (Chi-Square, p≦0.05) ([1]; 12.5 μg/dish, 2 hour): + | percent of termites on untreated sand vs expected value of 50% (Chi-Square, p≦0.05) ([1]; 12.5 μg/dish, 3 hour): + | percent of termites on untreated sand vs expected value of 50% (Chi-Square, p≦0.05) ([1]; 25 μg/dish, 0.25 hour): − | percent of termites on untreated sand vs expected value of 50% (Chi-Square, p≦0.05) ([1]; 25 μg/dish, 0.5 hour): + | percent of termites on untreated sand vs expected value of 50% (Chi-Square, p≦0.05) ([1]; 25 μg/dish, 0.75 hour): + | percent of termites on untreated sand vs expected value of 50% (Chi-Square, p≦0.05) ([1]; 25 μg/dish, 1 hour): + | percent of termites on untreated sand vs expected value of 50% (Chi-Square, p≦0.05) ([1]; 25 μg/dish, 2 hour): + | percent of termites on untreated sand vs expected value of 50% (Chi-Square, p≦0.05) ([1]; 25 μg/dish, 3 hour): + | percent of termites on untreated sand vs expected value of 50% (Chi-Square, p≦0.05) ([1]; 50 μg/dish, 0.25 hour): + | percent of termites on untreated sand vs expected value of 50% (Chi-Square, p≦0.05) ([1]; 50 μg/dish, 0.5 hour): + | percent of termites on untreated sand vs expected value of 50% (Chi-Square, p≦0.05) ([1]; 50 μg/dish, 0.75 hour): + | percent of termites on untreated sand vs expected value of 50% (Chi-Square, p≦0.05) ([1]; 50 μg/dish, 1 hour): + | percent of termites on untreated sand vs expected value of 50% (Chi-Square, p≦0.05) ([1]; 50 μg/dish, 2 hour): + | percent of termites on untreated sand vs expected value of 50% (Chi-Square, p≦0.05) ([1]; 50 μg/dish, 3 hour): + | percent of termites on untreated sand vs expected value of 50% (Chi-Square, p≦0.05) ([1]; 100 μg/dish, 0.25 hour): + | percent of termites on untreated sand vs expected value of 50% (Chi-Square, p≦0.05) ([1]; 100 μg/dish, 0.5 hour): + | percent of termites on untreated sand vs expected value of 50% (Chi-Square, p≦0.05) ([1]; 100 μg/dish, 0.75 hour): + | percent of termites on untreated sand vs expected value of 50% (Chi-Square, p≦0.05) ([1]; 100 μg/dish, 1 hour): + | percent of termites on untreated sand vs expected value of 50% (Chi-Square, p≦0.05) ([1]; 100 μg/dish, 2 hour): + | percent of termites on untreated sand vs expected value of 50% (Chi-Square, p≦0.05) ([1]; 100 μg/dish, 3 hour): + | factor by which the effective termite-repellent concentration is lower than that of nootkatone ([1]; relative to nootkatone): 50 | concentration effective as termite repellent ([1]; time periods up to 3 hr): 2 µg | repellence of biting midges [2]: fewer problems with biting midges; also recorded: effective repellent for biting midges | mosquito repellence ([3]; 5% solution, time periods up to 3 hr after the initial application): effective mosquito repellent | Number of Mosquito Bites in a 2 min Period ([3]; Volunteer 1, 5 min after application): 0 | Number of Mosquito Bites in a 2 min Period ([3]; Volunteer 1, 1 hr after application): 0 | Number of Mosquito Bites in a 2 min Period ([3]; Volunteer 1, 2 hr after application): 0 | Number of Mosquito Bites in a 2 min Period ([3]; Volunteer 1, 3 hr after application): 0 | Number of Mosquito Bites in a 2 min Period ([3]; Volunteer 2, 5 min after application): 0 | Number of Mosquito Bites in a 2 min Period ([3]; Volunteer 2, 1 hr after application): 0 | Number of Mosquito Bites in a 2 min Period ([3]; Volunteer 2, 2 hr after application): 0 | Number of Mosquito Bites in a 2 min Period ([3]; Volunteer 2, 3 hr after application): 2

Reference: patent publication US6897244B2, “Dihydronootkatone and tetrahydronootkatone as repellents to arthropods” (Board of Supervisors of Louisiana State University and …, priority 2002, dated 2005)
